Data reported in patent US11655235B2, “Pyrrolidine and piperidine compounds” (YUHAN CORPORATION, priority 2019, dated 2023).
Several values for one entry are separate records, joined by “and”; a condition that tells them apart may be missing. Equal values may be shown once.

Molecular target: T1, recombinant human PREP (Homo sapiens, UniProt P48147)
T1 construct: purchased R&D System
T1 sequence (P48147 1-710): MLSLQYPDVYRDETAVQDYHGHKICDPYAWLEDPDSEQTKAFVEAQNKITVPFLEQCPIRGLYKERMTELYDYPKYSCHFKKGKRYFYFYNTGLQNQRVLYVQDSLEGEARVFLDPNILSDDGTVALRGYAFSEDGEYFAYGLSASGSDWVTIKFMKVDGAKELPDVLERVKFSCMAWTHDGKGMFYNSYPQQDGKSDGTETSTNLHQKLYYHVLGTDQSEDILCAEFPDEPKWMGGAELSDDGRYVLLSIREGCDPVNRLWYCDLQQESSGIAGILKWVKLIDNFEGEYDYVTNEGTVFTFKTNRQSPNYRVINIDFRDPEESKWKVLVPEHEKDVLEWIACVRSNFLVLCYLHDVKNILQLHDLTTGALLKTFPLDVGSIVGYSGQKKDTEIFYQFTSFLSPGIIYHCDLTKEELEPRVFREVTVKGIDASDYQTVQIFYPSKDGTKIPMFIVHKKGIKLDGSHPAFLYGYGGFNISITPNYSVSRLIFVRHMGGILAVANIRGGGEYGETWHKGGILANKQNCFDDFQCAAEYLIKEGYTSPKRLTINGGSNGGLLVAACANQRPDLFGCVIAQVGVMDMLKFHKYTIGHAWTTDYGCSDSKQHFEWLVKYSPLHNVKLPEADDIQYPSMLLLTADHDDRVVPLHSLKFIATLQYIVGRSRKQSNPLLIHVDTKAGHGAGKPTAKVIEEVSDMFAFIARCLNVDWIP
Experiment: PREP inhibition, fluorogenic substrate Z-Gly-Pro-AMC
Assay type: biochemical
Settings: Inhibitory Activity (IC50, nM) PREP, recombinant human PREP
Summary of the method: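 Inhibitors are titrated in an 8-point series into the enzyme's assay buffer (DMSO no more than 0.5%). Substrate cleavage at 25 °C is followed by fluorescence, excitation 380 nm and emission 460 nm. IC50 values come from a four-variable logistic model.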

Row | Structure (SMILES) | IC50
1 | N#Cc1cnc2cccc(N[C@H]3CCN(CC(=O)N4CCC[C@H]4C#N)C3)c2c1 [Example 232, 5-[[(3S)-1-[2-oxo-2-[(2S)-2-cyanopyrrolidin-1-yl]ethyl]pyrrolidin-3-yl]amino]quinoline-3-carbonitrile] | 13700 nM
2 | COc1cnc2cccc(N[C@H]3CCN(CC(=O)N4CCC[C@H]4C#N)C3)c2c1 [Example 233, (2S)-1-[2-[(3S)-3-[(3-methoxy-5-quinolyl)amino]pyrrolidin-1-yl]acetyl]pyrrolidine-2-carbonitrile] | 11500 nM
3 | N#C[C@@H]1CCCN1C(=O)CN1CC[C@H](Nc2ccc(F)c3ncccc23)C1 [Example 244, (2S)-1-[2-[(3S)-3-[(8-fluoro-5-quinolyl)amino]pyrrolidin-1-yl]acetyl]pyrrolidine-2-carbonitrile] | 11100 nM
4 | N#C[C@@H]1CCCN1C(=O)CN1CC[C@H](Nc2ccc(C(F)(F)F)c3ncccc23)C1 [Example 245, (2S)-1-[2-[(3S)-3-[[8-(trifluoromethyl)-5-quinolyl]amino]pyrrolidin-1-yl]acetyl]pyrrolidine-2-carbonitrile] | 9470 nM
5 | N#Cc1ccc(N[C@H]2CCN(CC(=O)N3CCC[C@H]3C#N)C2)c2cccnc12 [Example 247, 5-[[(3S)-1-[2-oxo-2-[(2S)-2-cyanopyrrolidin-1-yl]ethyl]pyrrolidin-3-yl]amino]quinoline-8-carbonitrile] | > 10000 nM
6 | N#C[C@@H]1C[C@H](F)CN1C(=O)CN1CCC(Nc2ccc(C(F)(F)F)c3ncccc23)CC1 [Example 334, (2S,4S)-4-fluoro-1-[2-[4-[[8-(trifluoromethyl)-5-quinolyl]amino]-1-piperidyl]acetyl]pyrrolidine-2-carbonitrile] | 2300 nM and 2780 nM
7 | COc1cnc2cccc(NC3CCN(CC(=O)N4C[C@@H](F)C[C@H]4C#N)CC3)c2c1 [Example 348, (2S,4S)-4-fluoro-1-[2-[4-[(3-methoxy-5-quinolyl)amino]-1-piperidyl]acetyl]pyrrolidine-2-carbonitrile] | 10000 nM
8 | N#C[C@@H]1C[C@H](F)CN1C(=O)CN1CCC(Nc2cccc3cnc(Cl)cc23)CC1 [Example 352, (2S,4S)-1-[2-[4-[(3-chloro-5-isoquinolyl)amino]-1-piperidyl]acetyl]-4-fluoro-pyrrolidine-2-carbonitrile] | 10700 nM
9 | COc1cc2c(NC3CCN(CC(=O)N4C[C@@H](F)C[C@H]4C#N)CC3)cccc2cn1 [Example 355, (2S,4S)-4-fluoro-1-[2-[4-[(3-methoxy-5-isoquinolyl)amino]-1-piperidyl]acetyl]pyrrolidine-2-carbonitrile] | 14200 nM

Continued by falling IC50, values first:

Row | IC50 | Structure (SMILES)
10 | 5200 nM | N#C[C@@H]1C[C@H](F)CN1C(=O)CN1CCC(Nc2cccc3ncc(F)cc23)CC1 [Example 349, (2S,4S)-4-fluoro-1-[2-[4-[(3-fluoro-5-quinolyl)amino]-1-piperidyl]acetyl]pyrrolidine-2-carbonitrile]
11 | 4580 nM | N#C[C@@H]1C[C@H](F)CN1C(=O)CN1CCC(Nc2ccc(OC(F)(F)F)c3ncccc23)CC1 [Example 347, (2S,4S)-4-fluoro-1-[2-[4-[[8-(trifluoromethoxy)-5-quinolyl]amino]-1-piperidyl]acetyl]pyrrolidine-2-carbonitrile]
12 | 4290 nM | N#C[C@@H]1C[C@H](F)CN1C(=O)CN1CC[C@H](Nc2cccc3ncccc23)C1 [Example 228, (2S,4S)-4-fluoro-1-[2-[(3S)-3-(5-quinolylamino)pyrrolidin-1-yl]acetyl]pyrrolidine-2-carbonitrile]
13 | 3520 nM | N#C[C@@H]1C[C@H](F)CN1C(=O)CN1CC[C@H](Nc2ccc(OCc3ccccc3)c3ncccc23)C1 [Example 268, (2S,4S)-4-fluoro-1-[2-[(3S)-3-[(8-benzyloxy-5-quinolyl)amino]pyrrolidin-1-yl]acetyl]pyrrolidine-2-carbonitrile]
14 | 3470 nM | COc1ccc(N[C@H]2CCN(CC(=O)N3C[C@@H](F)C[C@H]3C#N)C2)c2cccnc12 [Example 263, (2S,4S)-4-fluoro-1-[2-[(3S)-3-[(8-methoxy-5-quinolyl)amino]pyrrolidin-1-yl]acetyl]pyrrolidine-2-carbonitrile]
15 | 3170 nM | Cc1ccc2nccc(OC3CCN(CC(=O)N4C[C@@H](F)C[C@H]4C#N)CC3)c2c1 [Example 410, (2S,4S)-4-fluoro-1-[2-[4-[(6-methyl-4-quinolyl)oxy]-1-piperidyl]acetyl]pyrrolidine-2-carbonitrile]
16 | 3170 nM | N#C[C@@H]1C[C@H](F)CN1C(=O)CN1CC[C@H](Nc2ccc(OC(F)(F)F)c3ncccc23)C1 [Example 266, (2S,4S)-4-fluoro-1-[2-[(3S)-3-[[8-(trifluoromethoxy)-5-quinolyl]amino]pyrrolidin-1-yl]acetyl]pyrrolidine-2-carbonitrile]
17 | 2210 nM | N#C[C@@H]1C[C@H](F)CN1C(=O)CN1CC[C@H](Nc2cccc3ncc(F)cc23)C1 [Example 255, (2S,4S)-4-fluoro-1-[2-[(3S)-3-[(3-fluoro-5-quinolyl)amino]pyrrolidin-1-yl]acetyl]pyrrolidine-2-carbonitrile]
